Experiments:
Assay type in all cases: functional
Rattus norvegicus [1] = assay: Antidiabetic activity in STZ-induced diabetic rat model assessed as reduction in glycosylated haemoglobin at 20 mg/kg, po qd for 21 days; design: scale not given: the % may be the effect or the level left
Rattus norvegicus [2] = assay: Antidiabetic activity in STZ-induced diabetic rat model assessed as increase in liver glycogen at 20 mg/kg, po qd for 21 days
Rattus norvegicus [3] = assay: Antidiabetic activity in STZ-induced diabetic rat model assessed as increase in muscle glycogen at 20 mg/kg, po qd for 21 days
Rattus norvegicus [4] = assay: Antidiabetic activity in STZ-induced diabetic rat model assessed as increase in glucose 6 phosphate dehydrogenase at 20 mg/kg, po qd for 21 days
Rattus norvegicus [5] = assay: Antidiabetic activity in STZ-induced diabetic rat model assessed as reduction in glucose-6-phosphatase at 20 mg/kg, po qd for 21 days; design: scale not given: the % may be the effect or the level left
Rattus norvegicus [6] = assay: Antidiabetic activity in STZ-induced diabetic rat model assessed as increase in plasma insulin level at 20 mg/kg, po qd for 21 days

Which results are given for `CC[C@H](CC[C@@H](C)[C@H]1CC[C@H]2[C@@H]3CC=C4C[C@@H](O)CC[C@]4(C)[C@H]3CC[C@]12C)C(C)C` [BETA-SITOSTEROL]?
Activity (Rattus norvegicus [1]): 66.96%; Activity (Rattus norvegicus [2]): 77.15%; Activity (Rattus norvegicus [3]): 76.86%; Activity (Rattus norvegicus [4]): 38.52%; Activity (Rattus norvegicus [5]): 40.07%; Activity (Rattus norvegicus [6]): 69.05%

From ChEMBL document CHEMBL1926541, “Molecular docking of γ-sitosterol with some targets related to diabetes” (2012)
